Experiment: Compound was tested for inhibition of hydrogen peroxide toxicity against human skin fibroblasts
Format: functional

| Compound | IC50 [µM] |
| --- | --- |
| CCCCCCCOc1c(OC)cc(CN(CCN(CC(=O)O)Cc2cc(OC)c(OCCCCCCC)c(OC)c2)CC(=O)O)cc1OC | 50 |
| COc1cc(CN(CCN(CC(=O)OCOC(C)=O)Cc2cc(OC)c(OC)c(OC)c2)CC(=O)OCOC(C)=O)cc(OC)c1OC | 3 |

Reference: ChEMBL document CHEMBL1133001, “Protection against oxidative damage by iron chelators: effect of lipophilic analogues and prodrugs of N,N'-bis(3,4,5-trimethoxybenzyl)ethylenediamine- N,N'-diacetic acid (OR10141)” (J Med Chem, 2000)
